This passage reports EC50 results from US10457672B2, “γ-diketones as Wnt/β-catenin signaling pathway activators” (Samumed, LLC, priority 2013, dated 2019).

This assay deals with Wnt/β-catenin signaling pathway (Wnt-responsive SP5 promoter luciferase reporter in SW480 cells). Put plainly: Wnt reporter (SP5 promoter-firefly luciferase) activation assay in SW480 cells. In kind it is cell-based. Conditions: Homo sapiens; SW480 colon cancer cells with SP5 promoter luciferase reporter; 24 h after compound addition; normalized to DMSO; concentration at half maximal activation. As for the experimental part:
Compounds that enhance the Wnt activity, or Activators, were assayed as follows. Reporter cell lines were generated by stably transducing cells of colon cancer cell lines (with a lentiviral construct that included a Wnt-responsive promoter driving expression of the firefly luciferase gene).
Lentiviral constructs were made in which the SP5 promoter, a promoter having eight TCF/LEF binding sites derived from the SP5 promoter, was linked upstream of the firefly luciferase gene. The lentiviral constructs also included a hygromycin resistance gene as a selectable marker. The SP5 promoter construct was used to transduce SW480 cells, a colon cancer cell line having a mutated APC gene that generates a truncated APC protein, leading to de-regulated accumulation of β-catenin.
Cultured SW480 cells bearing a reporter construct were distributed at approximately 10,000 cells per well into 384- or 96-well multiwell plates. Compounds from a small molecule compound library were then added to the wells in half-log dilutions using a maximum concentration of three or ten micromolar. A series of control wells for each cell type received only buffer and compound solvent DMSO. Twenty-four hours after the addition of compound, reporter activity for luciferase was assayed, for example, by addition of the BrightGlo luminescence reagent (Promega) and the Victor3 plate reader (Perkin Elmer). Readings were normalized to DMSO only treated cells, and any activities above DMSO were considered activation. Compounds were considered activators if reporter activities were 2× fold or greater than DMSO. EC50 is the concentration at half maximal activation.
In general terms: In a reporter assay the amount or activity of a reporter protein is the signal.
For the molecule `COc1ccc(C(=O)CCC(=O)c2ccccn2)cc1OC` [Compound 207, 1-(3,4-Dimethoxyphenyl)-4-(pyridin-2-yl)butane-1,4-dione], the EC50 (in general, the concentration giving half of the maximal effect) was over 10000 nM. As for `O=C(CCC(=O)c1ccc2c(c1)SCCO2)c1ccccc1` [Compound 28, 1-(2,3-Dihydrobenzo[b][1,4]oxathiin-6-yl)-4-phenylbutane-1,4-dione], the figure is 9 nM; as for `Cc1ccccc1C(=O)CCC(=O)c1ccc2occc2c1` [Compound 455, 1-(Benzofuran-5-yl)-4-(o-tolyl)butane-1,4-dione], 32 nM; as for `O=C(CCC(=O)c1ccccc1F)c1ccc2[nH]ncc2c1` [Compound 495, 1-(2-Fluorophenyl)-4-(1H-indazol-5-yl)butane-1,4-dione], 8 nM. The value for `O=C(CCC(=O)c1ccccc1F)c1ccc2c(c1)SCCO2` [Compound 19, 1-(2,3-Dihydrobenzo[b][1,4]oxathiin-6-yl)-4-(2-fluorophenyl)butane-1,4-dione] was 3 nM; that for `Cc1cccc(C(=O)CCC(=O)c2n[nH]c3ccccc23)c1` [Compound 529, 1-(1H-Indazol-3-yl)-4-(m-tolyl)butane-1,4-dione] was 695 nM. `COc1ccc(C(=O)CCC(=O)c2cccnn2)cc1OC` [Compound 433, 1-(3,4-Dimethoxyphenyl)-4-(pyridazin-3-yl)butane-1,4-dione] registered a concentration for a half-maximal effect (EC50) of over 10000 nM. The value for `O=C(CCC(=O)c1ccc2c(c1)OC(F)(F)O2)c1ccccc1` [Compound 235, 1-(2,2-Difluorobenzo[d][1,3]dioxol-5-yl)-4-phenylbutane-1,4-dione] was 494 nM; that for `O=C(CCC(=O)c1ccc2[nH]ncc2c1)c1ccc(F)cc1` [Compound 497, 1-(4-Fluorophenyl)-4-(1H-indazol-5-yl)butane-1,4-dione] was 48 nM; that for `Cc1ccccc1C(=O)CCC(=O)c1ccc2c(c1)OCCO2` [Compound 342, 1-(2,3-Dihydrobenzo[b][1,4]dioxin-6-yl)-4-(o-tolyl)butane-1,4-dione] was 9 nM. `O=C(CCC(=O)c1ccccc1C(F)(F)F)c1ccc2c(c1)SCCO2` [Compound 16, 1-(2,3-Dihydrobenzo[b][1,4]oxathiin-6-yl)-4-(2-(trifluoromethyl)phenyl)butane-1,4-dione]: the response was half-maximal at 7 nM (EC50). As for `O=C(CCC(=O)c1ccc2c(c1)OCCO2)c1ccc(C(F)(F)F)cc1` [Compound 10, 1-(2,3-Dihydrobenzo[b][1,4]dioxin-6-yl)-4-(4-(trifluoromethyl)phenyl)butane-1,4-dione], the figure is over 10000 nM; as for `O=C(CCC(=O)c1ccncn1)c1ccc2c(c1)OCCO2` [Compound 340, 1-(2,3-Dihydrobenzo[b][1,4]dioxin-6-yl)-4-(pyrimidin-4-yl)butane-1,4-dione], 209 nM; as for `O=C(CCC(=O)c1ccco1)c1ccc2c(c1)CCCO2` [Compound 365, 1-(Chroman-6-yl)-4-(furan-2-yl)butane-1,4-dione], 33 nM. `Cc1ccccc1C(=O)CCC(=O)c1ccc2c(c1)CCCO2` [Compound 358, 1-(Chroman-6-yl)-4-(o-tolyl)butane-1,4-dione] returned an EC50 of 14 nM. `O=C(CCC(=O)c1n[nH]c2ccccc12)c1ccccc1F` [Compound 329, 1-(2-Fluorophenyl)-4-(1H-indazol-3-yl)butane-1,4-dione] came in with a concentration giving a half-maximal response (EC50) of 89 nM. `O=C(CCC(=O)c1c[nH]c2ccccc12)c1ccccc1` [Compound 325, 1-(1H-Indol-3-yl)-4-phenylbutane-1,4-dione] returned a concentration for a half-maximal effect (EC50) of 63 nM. The EC50 values of the last two molecules are within 1.5-fold of each other. The value for `O=C(CCC(=O)c1cccc2c1OCCO2)c1ccc(C(F)(F)F)cc1` [Compound 238, 1-(2,3-Dihydrobenzo[b][1,4]dioxin-5-yl)-4-(4-(trifluoromethyl)phenyl)butane-1,4-dione] was over 10000 nM. For the molecule `O=C(CCC(=O)c1ccccc1F)c1ccccn1` [Compound 538, 1-(2-Fluorophenyl)-4-(pyridin-2-yl)butane-1,4-dione], the concentration for a half-maximal effect (EC50) was determined as 63 nM. This lies in the double-digit nanomolar range. The value for `COc1ccccc1C(=O)CCC(=O)c1ccc2c(c1)OCCO2` [Compound 12, 1-(2,3-Dihydrobenzo[b][1,4]dioxin-6-yl)-4-(2-methoxyphenyl)butane-1,4-dione] was 5 nM; that for `O=C(CCC(=O)c1ccco1)c1ccc2c(c1)OC(F)(F)O2` [Compound 385, 1-(2,2-Difluorobenzo[d][1,3]dioxol-5-yl)-4-(furan-2-yl)butane-1,4-dione] was 165 nM; that for `Cc1cccc(C(=O)CCC(=O)c2ccc3c(c2)OCCO3)c1` [Compound 343, 1-(2,3-Dihydrobenzo[b][1,4]dioxin-6-yl)-4-(m-tolyl)butane-1,4-dione] was 351 nM.

Regarding `O=C(CCC(=O)c1cc2c(c(O)c1O)OCCO2)c1ccccc1` [Compound 4, 1-(7,8-dihydroxy-2,3-dihydrobenzo[b][1,4]dioxin-6-yl)-4-phenylbutane-1,4-dione], the concentration giving a half-maximal response (EC50) was over 10000 nM. Molecule `O=C(CCC(=O)c1ccccc1C(F)(F)F)c1ccc2sccc2c1` [Compound 301, 1-(Benzo[b]thiophen-5-yl)-4-(2-(trifluoromethyl)phenyl)butane-1,4-dione] came in with an EC50 of 39 nM. As for `O=C(CCC(=O)c1ccc2[nH]cnc2c1)c1cccc(C(F)(F)F)c1` [Compound 263, 1-(1H-Benzo[d]imidazol-5-yl)-4-(3-(trifluoromethyl)phenyl)butane-1,4-dione], the 50% effective concentration (EC50) was over 10000 nM.

In turn, `Cc1ccc(C(=O)CCC(=O)c2ccc3[nH]ccc3c2)cc1` [Compound 447, 1-(1H-Indol-5-yl)-4-(p-tolyl)butane-1,4-dione] registered a concentration for a half-maximal effect (EC50) of over 10000 nM. `COc1ccc(C(=O)CCC(=O)c2cncnc2)cc1OC` [Compound 430, 1-(3,4-Dimethoxyphenyl)-4-(pyrimidin-5-yl)butane-1,4-dione] gave an EC50 of over 10000 nM. The value for `O=C(CCC(=O)c1ccccc1F)c1ccc2ocnc2c1` [Compound 291, 1-(Benzo[d]oxazol-5-yl)-4-(2-fluorophenyl)butane-1,4-dione] was 125 nM.

`O=C(CCC(=O)c1ncccc1F)c1ccc2c(c1)OCCO2` [Compound 569, 1-(2,3-Dihydrobenzo[b][1,4]dioxin-6-yl)-4-(3-fluoropyridin-2-yl) butane-1,4-dione]: it took 1.96 nM to reach a half-maximal effect (EC50).

Turning to `Cc1ccccc1C(=O)CCC(=O)c1ccccn1` [Compound 544, 1-(Pyridin-2-yl)-4-(o-tolyl)butane-1,4-dione], the midpoint of the response, the EC50, lay at 900 nM. The value for `COc1ccccc1C(=O)CCC(=O)c1ccc2ocnc2c1` [Compound 294, 1-(Benzo[d]oxazol-5-yl)-4-(2-methoxyphenyl)butane-1,4-dione] was 1720 nM. As for `O=C(CCC(=O)c1ccc2ocnc2c1)c1cccc(F)c1` [Compound 292, 1-(Benzo[d]oxazol-5-yl)-4-(3-fluorophenyl)butane-1,4-dione], the figure is 595 nM; as for `O=C(CCC(=O)c1ccccc1C(F)(F)F)c1cccs1` [Compound 559, 1-(Thiophen-2-yl)-4-(2-(trifluoromethyl)phenyl)butane-1,4-dione], 340 nM. In turn, `O=C(CCC(=O)c1ccc2c(c1)OCO2)c1ccccc1` [Compound 222, 1-(Benzo[d][1,3]dioxol-5-yl)-4-phenylbutane-1,4-dione] returned a concentration giving a half-maximal response (EC50) of 3 nM. Against the preceding molecule, the EC50 is about 110-fold lower.

Consider `O=C(CCC(=O)c1ncccn1)c1ccc2c(c1)OCCO2` [Compound 339, 1-(2,3-Dihydrobenzo[b][1,4]dioxin-6-yl)-4-(pyrimidin-2-yl)butane-1,4-dione], for which a half-maximal effect (EC50) was put at 9 nM. This EC50 lies about 3-fold higher than the previous one. With `O=C(CCC(=O)c1cccc2c1OCCO2)c1ccco1` [Compound 442, 1-(2,3-Dihydrobenzo[b][1,4]dioxin-5-yl)-4-(furan-2-yl)butane-1,4-dione], the EC50 was 2150 nM.

Regarding `O=C(CCC(=O)c1cccs1)c1ccc2c(c1)CCCO2` [Compound 364, 1-(Chroman-6-yl)-4-(thiophen-2-yl)butane-1,4-dione], the EC50 amounted to 13 nM. The value for `O=C(CCC(=O)c1ccccc1F)c1ccc2[nH]cnc2c1` [Compound 265, 1-(1H-Benzo[d]imidazol-5-yl)-4-(2-fluorophenyl)butane-1,4-dione] was 201 nM; that for `COc1ccccc1C(=O)CCC(=O)c1ccc2c(c1)OCCC2` [Compound 61, 1-(Chroman-7-yl)-4-(2-methoxyphenyl)butane-1,4-dione] was 25 nM; that for `O=C(CCC(=O)c1cccs1)c1ccc2[nH]ccc2c1` [Compound 451, 1-(1H-Indol-5-yl)-4-(thiophen-2-yl)butane-1,4-dione] was 37 nM.

On to `O=C(CCC(=O)c1c[nH]c2ccccc12)c1ccccc1F` [Compound 317, 1-(2-Fluorophenyl)-4-(1H-indol-3-yl)butane-1,4-dione], for which the EC50 was over 10000 nM. As for `O=C(CCC(=O)c1ccco1)c1ccc2c(c1)OCO2` [Compound 375, 1-(Benzo[d][1,3]dioxol-5-yl)-4-(furan-2-yl)butane-1,4-dione], the figure is 71 nM; as for `O=C(CCC(=O)c1cccc2c1OCCO2)c1ccccc1` [Compound 248, 1-(2,3-Dihydrobenzo[b][1,4]dioxin-5-yl)-4-phenylbutane-1,4-dione], over 10000 nM. The value for `O=C(CCC(=O)c1ccc2occc2c1)c1ccccc1` [Compound 287, 1-(Benzofuran-5-yl)-4-phenylbutane-1,4-dione] was 87 nM.
